The values below are quoted from earlier work in patent US7560230B2, “Method for determining susceptibility of tumor to treatment with anti-neoplastic agent” (Threshold Pharmaceuticals, Inc., priority 2003, dated 2009).

What all share (details): sodium-dependent transport
One data set concerns the target T1, SGLT1 (Homo sapiens, UniProt P13866).
T1 sequence (P13866 1-664): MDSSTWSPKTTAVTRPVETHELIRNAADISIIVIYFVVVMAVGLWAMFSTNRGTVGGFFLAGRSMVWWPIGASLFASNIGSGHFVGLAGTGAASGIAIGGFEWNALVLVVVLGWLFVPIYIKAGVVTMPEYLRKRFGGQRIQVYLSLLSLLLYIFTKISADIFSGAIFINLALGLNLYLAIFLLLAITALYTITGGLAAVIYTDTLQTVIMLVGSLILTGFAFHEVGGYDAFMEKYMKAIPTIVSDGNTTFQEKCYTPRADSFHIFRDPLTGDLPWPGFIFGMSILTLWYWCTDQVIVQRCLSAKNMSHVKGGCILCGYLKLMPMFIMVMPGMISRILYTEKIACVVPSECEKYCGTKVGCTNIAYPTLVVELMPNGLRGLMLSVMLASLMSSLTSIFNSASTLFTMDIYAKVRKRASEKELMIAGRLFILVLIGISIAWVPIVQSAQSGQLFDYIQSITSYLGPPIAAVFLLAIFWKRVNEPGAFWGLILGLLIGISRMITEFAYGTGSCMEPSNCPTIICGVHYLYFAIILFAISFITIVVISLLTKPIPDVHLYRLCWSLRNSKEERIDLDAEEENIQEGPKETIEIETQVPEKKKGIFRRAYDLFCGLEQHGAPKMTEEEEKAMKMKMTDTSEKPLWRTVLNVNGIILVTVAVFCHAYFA

Another data set addresses T2, SGLT2 (Homo sapiens, UniProt P31639).
T2 sequence (P31639 1-672): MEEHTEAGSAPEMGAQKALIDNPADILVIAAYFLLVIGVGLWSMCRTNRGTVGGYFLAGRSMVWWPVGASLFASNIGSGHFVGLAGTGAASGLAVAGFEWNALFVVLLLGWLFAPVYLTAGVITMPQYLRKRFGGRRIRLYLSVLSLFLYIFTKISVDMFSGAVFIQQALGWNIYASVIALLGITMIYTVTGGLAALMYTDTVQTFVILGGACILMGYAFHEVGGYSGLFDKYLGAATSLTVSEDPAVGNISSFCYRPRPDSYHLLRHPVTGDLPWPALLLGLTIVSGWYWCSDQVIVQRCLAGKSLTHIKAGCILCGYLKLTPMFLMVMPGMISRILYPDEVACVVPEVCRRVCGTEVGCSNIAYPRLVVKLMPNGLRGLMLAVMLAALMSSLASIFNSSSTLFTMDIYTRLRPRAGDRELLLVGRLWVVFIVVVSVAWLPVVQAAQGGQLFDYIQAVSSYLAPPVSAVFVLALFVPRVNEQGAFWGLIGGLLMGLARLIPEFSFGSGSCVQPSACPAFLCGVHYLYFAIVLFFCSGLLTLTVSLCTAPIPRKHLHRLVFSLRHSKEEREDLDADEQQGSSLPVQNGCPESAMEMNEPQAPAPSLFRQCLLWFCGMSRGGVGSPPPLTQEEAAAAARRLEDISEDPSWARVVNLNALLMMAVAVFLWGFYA

In the next data set the test system is SGLT3.

Take `CO[C@H]1O[C@H](CO)[C@@H](O)[C@H](O)[C@H]1O` [a-MDG, a-methyl-D-glucoside]: the “apparent affinity (K0.5)” value at SGLT1 is listed as 0.4 mM; at SGLT2, 2 mM; with SGLT3, 2 mM.
